Experimental data: patent US10555919B2, “Melatonin in autoimmune disease” (The Brigham and Women's Hopsital, Inc., priority 2014, dated 2020)

Tests used:
[1] = system: human CD4+ T cells activated under Th17 polarizing conditions; experiment: In vitro human Th17 differentiation; format: cell-based; conditions: 500 ng/ml
Method: In vitro human T cell differentiation. For Th17 differentiation, naive CD45RA+ CD4+ T cells were isolated from PBMCs with magnetic beads (Naive Human CD4+ T Cell Isolation Kit II, Miltenyi Biotec) and seeded at a density of 5×10^5 cells/ml in 24-well plates coated with anti-CD3 and (2 μg/ml) and soluble anti-CD28 and cultured in the presence of the following cytokines IL-1β (25 ng/ml), IL-6 (50 ng/ml), and TGF-β1 (2 ng/ml) and neutralizing antibodies to IFN-g ([…]) and IL-4 (10 microgram/ml). Alternatively, Th17 cells were differentiated by using IL-1β (25 ng/ml), IL-6 (50 ng/ml), and IL-23 (50 ng/ml) and neutralizing antibodies to IFN-g ([…]) and IL-4 (10 microgram/ml). For Th1 differentiation naïve CD4+T cells are cultured in the presence of IL-12 (20 ng/ml) and anti-IL-4 (10 μg/ml).
Secreted cytokines were measured in tissue culture supernatants after 72-96 hs by enzyme-linked immunosorbent assay as previously described (Farez et al., 2009).

[2] = system: nr1d1 reporter-transfected HEK293 cells; experiment: nr1d1 promoter luciferase reporter assay; format: cell-based; conditions: nr1d1 promoter controls luciferase expression
Excerpt: The IL-10 promoter reporter and C-Maf and AhR vectors were previously described (Apetoh et al., 2010), vector expressing ROR-α were purchased from PlasmID at Harvard Medical School. Vectors coding for C/EBPα (44627) and Bmal reporter (46824) were purchased from Addgene. The retrovirus used for nfil3 overexpression in T cells was graciously provided by Laura Hooper (UT Southwestern, TX, USA). The retrovirus used for nr1d1 overexpression in T cells was graciously provided by Bart Staels (Institut Pasteur, Lille, France, […]). The nr1d1 promoter reporter was graciously provide by Vincent Laudent (Ecole Normale Supérieure, Lyon, France).
HEK293 cells were grown in DMEM supplemented with 10% FBS and were transfected with FuGENE HD transfection reagent and 2 μg of each plasmids according the manufacturer's instructions (Roche). Firefly and renilla luciferase activity was analyzed 48 h after transfection and 24 h after treatment with a Dual Luciferase Assay kit (Promega).

COc1ccc2[nH]cc(CCNC(C)=O)c2c1 [Melatonin, N-Acetyl-5-methoxytryptamine]
production of IL-17, RORC and IL17A expression [1]: reduced
IL10 expression ([1]; Th17 polarizing conditions): increased
luciferase activity [2]: decreased
